Measurements published in article PMC6143434 (Molecular neurobiology, 2018).
Where “and” joins values, the source holds several entries; their conditions need not be identical. Equal entries are not always repeated. Structures can show the parent of a compound that is named as a salt. Where two headings read alike, the source gives them in different places. Each block holds one compound with its values, some of them ahead of it.

Assays:
[1] = target: α2 adrenoceptors (cortex, mostly α2A) (Ovis aries, UniProt A0ACI6PY47); experiment: [3H]RX821002 binding; parameters: species or system sheep
[2] = target: α2 adrenoceptors (striatum, α2A and α2C); experiment: [3H]RX821002 binding; parameters: species or system sheep
α2A adrenoceptor [3] = target: T1, α2A adrenoceptor (Homo sapiens, UniProt P08913); experiment: G protein activation BRET assay in transfected HEK-293T cells; type: cell-based; conditions: for EC50: read-out: Potency (EC50) G protein activation
T1 sequence (P08913 1-465): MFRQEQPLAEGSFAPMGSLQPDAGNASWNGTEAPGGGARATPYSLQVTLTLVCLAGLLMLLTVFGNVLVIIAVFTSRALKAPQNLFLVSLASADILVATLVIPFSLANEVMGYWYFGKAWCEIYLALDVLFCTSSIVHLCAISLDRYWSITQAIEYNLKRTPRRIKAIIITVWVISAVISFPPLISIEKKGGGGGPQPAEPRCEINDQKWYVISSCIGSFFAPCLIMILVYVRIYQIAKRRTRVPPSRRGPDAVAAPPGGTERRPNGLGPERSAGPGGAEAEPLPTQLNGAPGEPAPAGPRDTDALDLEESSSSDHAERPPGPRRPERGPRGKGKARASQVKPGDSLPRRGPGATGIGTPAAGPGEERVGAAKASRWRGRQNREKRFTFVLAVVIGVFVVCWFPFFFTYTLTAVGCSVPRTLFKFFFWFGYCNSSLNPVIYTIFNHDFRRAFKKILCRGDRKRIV

α2C adrenoceptor [4] = target: T2, α2C adrenoceptor (Homo sapiens, UniProt P18825); experiment: as above; type: cell-based
T2 sequence (P18825 1-462): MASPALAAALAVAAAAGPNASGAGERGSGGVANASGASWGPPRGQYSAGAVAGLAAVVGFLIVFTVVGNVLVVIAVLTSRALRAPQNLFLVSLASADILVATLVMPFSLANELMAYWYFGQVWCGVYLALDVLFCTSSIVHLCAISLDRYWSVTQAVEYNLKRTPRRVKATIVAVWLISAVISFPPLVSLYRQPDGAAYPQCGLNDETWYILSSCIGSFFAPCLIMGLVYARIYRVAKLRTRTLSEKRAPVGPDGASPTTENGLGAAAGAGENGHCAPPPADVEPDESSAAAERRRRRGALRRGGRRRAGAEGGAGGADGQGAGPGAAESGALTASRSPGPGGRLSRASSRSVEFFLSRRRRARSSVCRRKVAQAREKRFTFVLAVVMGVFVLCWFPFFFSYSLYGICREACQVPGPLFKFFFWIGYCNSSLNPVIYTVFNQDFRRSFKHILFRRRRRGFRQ

α2A adrenoceptor [5] = target: T1, α2A adrenoceptor; experiment: DMR label-free assay in CHO cells transfected with α2A-RLuc8 receptor; type: cell-based; conditions: for DMR response: at 300 nM, Fig. 6 legend: 100 nM
α2A adrenoceptor [6] = target: T1, α2A adrenoceptor; experiment: ERK1/2 phosphorylation in CHO cells transfected with α2A-RLuc8 receptor; type: cell-based; conditions: 5 minutes; for MAPK activation (ERK1/2 phosphorylation): 1 μM
D2-like receptor D2L = conditions: read-out: EC50 values, G protein activation, across Gi/o protein subtypes; cited from earlier work
D2-like receptors = D2-like receptors (Ovis aries, UniProt A0ACI6R699); experiment: [3H]YM-09151-2 competition binding, sheep brain striatum; conditions: sheep striatal membranes; any concentration up to 10 μM
human D2 receptor = human D2 receptor (Homo sapiens, UniProt P14416); type: binding; conditions: HEK-293T membranes, up to 10 μM; data not shown
Chain of human D2 receptor (P14416 whole entry): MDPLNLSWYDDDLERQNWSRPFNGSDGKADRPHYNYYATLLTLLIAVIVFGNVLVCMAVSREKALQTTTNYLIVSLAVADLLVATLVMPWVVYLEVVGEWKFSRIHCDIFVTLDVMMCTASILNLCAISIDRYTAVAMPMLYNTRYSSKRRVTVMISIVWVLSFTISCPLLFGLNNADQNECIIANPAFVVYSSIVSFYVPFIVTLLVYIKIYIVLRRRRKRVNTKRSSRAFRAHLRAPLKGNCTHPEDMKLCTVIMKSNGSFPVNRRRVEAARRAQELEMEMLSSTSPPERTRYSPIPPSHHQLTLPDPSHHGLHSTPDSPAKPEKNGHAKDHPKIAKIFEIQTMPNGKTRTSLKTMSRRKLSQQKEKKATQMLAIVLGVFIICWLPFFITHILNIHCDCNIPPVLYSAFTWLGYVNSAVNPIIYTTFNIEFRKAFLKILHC

human D3 receptor = human D3 receptor (Homo sapiens, UniProt P35462); type: binding; conditions: HEK-293T membranes, up to 10 μM; data not shown
Chain of human D3 receptor (P35462 whole entry): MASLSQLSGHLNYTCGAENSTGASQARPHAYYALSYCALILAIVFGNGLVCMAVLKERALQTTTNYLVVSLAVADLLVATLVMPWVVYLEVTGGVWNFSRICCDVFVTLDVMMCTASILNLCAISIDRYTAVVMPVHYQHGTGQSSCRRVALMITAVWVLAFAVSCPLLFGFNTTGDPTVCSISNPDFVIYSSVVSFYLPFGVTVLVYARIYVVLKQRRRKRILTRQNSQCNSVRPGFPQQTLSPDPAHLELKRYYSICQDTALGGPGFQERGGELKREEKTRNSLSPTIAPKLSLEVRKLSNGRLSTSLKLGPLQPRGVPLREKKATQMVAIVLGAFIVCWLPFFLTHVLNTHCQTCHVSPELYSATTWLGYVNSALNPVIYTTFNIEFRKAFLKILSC

human D4 receptor = target: T3, human D4 receptor (Homo sapiens, UniProt P21917); type: binding; conditions: HEK-293T membranes, up to 10 μM; data not shown
T3 sequence (P21917 1-419): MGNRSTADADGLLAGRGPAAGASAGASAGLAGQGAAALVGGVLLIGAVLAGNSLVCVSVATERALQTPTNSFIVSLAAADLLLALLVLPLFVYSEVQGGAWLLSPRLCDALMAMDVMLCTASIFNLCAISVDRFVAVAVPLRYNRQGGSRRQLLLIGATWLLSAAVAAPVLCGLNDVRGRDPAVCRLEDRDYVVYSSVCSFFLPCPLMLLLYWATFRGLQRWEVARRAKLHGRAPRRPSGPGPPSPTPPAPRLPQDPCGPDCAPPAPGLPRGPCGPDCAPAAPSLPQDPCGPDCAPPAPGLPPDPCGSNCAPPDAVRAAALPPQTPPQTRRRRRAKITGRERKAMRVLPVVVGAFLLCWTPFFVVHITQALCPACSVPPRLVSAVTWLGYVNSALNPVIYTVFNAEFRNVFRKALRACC

α2A adrenoceptor [7] = target: T1, α2A adrenoceptor
α2C adrenoceptor [8] = target: T2, α2C adrenoceptor
α2C adrenoceptor [9] = target: T2, α2C adrenoceptor; experiment: cell-based
[10] = read-out: KDB1, cortex, vs [3H]RX821002, two-state dimer model, first protomer
[11] = read-out: KDB2, cortex, vs [3H]RX821002, two-state dimer model, second protomer
[12] = read-out: KDB1, striatum, vs [3H]RX821002, two-state dimer model, first protomer
[13] = read-out: KDB2, striatum, vs [3H]RX821002, two-state dimer model, second protomer

Compound: CCCN(C/C=C/I)C1CCc2ccc(O)cc2C1 (stereo not shown) [7-OH-PIPAT, 7-OH-PIPAT maleate]
DCB (cooperativity index) ([1]; cortex, vs [3H]RX821002): DCB: -1.1 | Kd [1, 10]: 9 nM | Kd [1, 11]: 430 nM | Kd [2, 12]: 51 nM | Efficacy (Emax) G protein activation (α2A adrenoceptor [3]; Gαi1, α2A): 94 ± 6 percentage of NE values | Efficacy (Emax) G protein activation (α2A adrenoceptor [3]; Gαi2, α2A): 55 ± 2 percentage of NE values | Efficacy (Emax) G protein activation (α2A adrenoceptor [3]; Gαi3, α2A): 71 ± 6 percentage of NE values | Efficacy (Emax) G protein activation (α2A adrenoceptor [3]; Gαo1, α2A): 81 ± 9 percentage of NE values | Efficacy (Emax) G protein activation (α2A adrenoceptor [3]; Gαo2, α2A): 85 ± 4 percentage of NE values | EC50 (α2A adrenoceptor [3]; Gαo1, α2A): 100 ± 20 nM | EC50 (α2A adrenoceptor [3]; Gαo2, α2A): 66 ± 7 nM | Efficacy (Emax) G protein activation (α2C adrenoceptor [4]; Gαi1, α2C, ND: not detectable): 41 ± 1 percentage of NE values | Efficacy (Emax) G protein activation (α2C adrenoceptor [4]; Gαi2, α2C): 90 ± 20 percentage of NE values | Efficacy (Emax) G protein activation (α2C adrenoceptor [4]; Gαi3, α2C): 90 ± 10 percentage of NE values | Efficacy (Emax) G protein activation (α2C adrenoceptor [4]; Gαo1, α2C): 98 ± 7 percentage of NE values | Efficacy (Emax) G protein activation (α2C adrenoceptor [4]; Gαo2, α2C): 106 ± 3 percentage of NE values | EC50 (α2C adrenoceptor [4]; read-out: Potency (EC50) G protein activation, Gαi3, α2C): 5 ± 3 nM | DMR response (α2A adrenoceptor [5]): significant response | MAPK activation (ERK1/2 phosphorylation) (α2A adrenoceptor [6]): able to produce MAPK activation

Compound: NCCc1ccc(O)c(O)c1 [DA, Dopamine hydrochloride]
Kd [2, 12]: 6 nM | Kd [2, 13]: 1000 nM | EC50 (D2-like receptor D2L): 130 to 400 nM

Compound: Cc1ncc(CN2CC=C(c3ccccc3)CC2)c(N)n1.Cl.Cl [RO-105824, RO-105824 dihydrochloride]
Kd [1, 10]: 0.055 nM | Kd [1, 11]: 4000 nM | Kd [2, 12]: 0.42 nM | G protein activation (agonist effect) (α2A adrenoceptor [3]; α2A, Gαi2 and Gαi3): small efficacy | G protein activation (agonist effect) (α2A adrenoceptor [3]; α2A, Gαi/o subtypes other than Gαi2 and Gαi3): did not produce a significant activation | inhibition of the agonistic effect of clonidine (1 μM) (α2A adrenoceptor [3]; α2A, Gαo1): did counteract | inhibition of the agonistic effect of clonidine (1 μM) (α2C adrenoceptor [4]; α2C, Gαo1): did counteract | G protein activation (agonist effect) (α2C adrenoceptor [4]; α2C, any of the Gαi/o subtypes): did not produce a significant activation | DMR response (α2A adrenoceptor [5]): substantially lower | MAPK activation (ERK1/2 phosphorylation) (α2A adrenoceptor [6]): able to produce MAPK activation

Compound: CC1c2ccccc2CN1CC1=NCCN1 (stereo not shown) [BRL 44408]
effect on DA and NE activation of DMR (α2A adrenoceptor [5]; BRL 44408 1 μM, 30 minutes pretreatment): decreased

Compound: Clc1cccc(Cl)c1N=C1NCCN1 [Clonidine, clonidine hydrochloride]
Kd [2, 12]: 0.036 nM | Kd [2, 13]: 20 nM | Efficacy (Emax) G protein activation (α2A adrenoceptor [3]): 110 ± 10 percentage of NE values and 120 ± 2 percentage of NE values and 120 ± 5 percentage of NE values and 89 ± 6 percentage of NE values and 112 ± 8 percentage of NE values

Continued, values first:

displacement of [3H]YM-09151-2 binding (D2-like receptors): did not displace | displacement of [3H]YM-09151-2 binding (human D2 receptor): identical results | displacement of [3H]YM-09151-2 binding (human D3 receptor): identical results | displacement of [3H]YM-09151-2 binding (human D4 receptor): identical results
Compound: COC1(C2=NCCN2)COc2ccccc2O1 (stereo not shown) [RX821002]

Kd ([1]; read-out: affinity value (KDA1) of the radioligand, saturation experiments, cortical tissue, n=4-8): 0.06 ± 0.01 nM | Kd ([2]; read-out: affinity value (KDA1) of the radioligand, saturation experiments, striatal tissue, n=4-8): 0.07 ± 0.01 nM
Compound: COC1(C2=NCCN2)COc2ccccc2O1 (stereo not shown) [[^3H]RX821002]

blockade of Gαo1 activation induced by 10 μM 7-OH-PIPAT or 10 μM quinpirole (α2A adrenoceptor [3]): completely blocked | blockade of Gαo1 activation induced by 10 μM 7-OH-PIPAT or 10 μM quinpirole (α2C adrenoceptor [4]): completely blocked | blockade of Gi/o-dependent effects of NE and DA on adenylyl cyclase (α2A adrenoceptor [7]; yohimbine 10 μM): blocked | blockade of Gi/o-dependent effects of NE and DA on adenylyl cyclase (α2C adrenoceptor [8]; yohimbine 10 μM): blocked
Compound: COC(=O)[C@@H]1[C@H]2C[C@H]3c4[nH]c5ccccc5c4CCN3C[C@@H]2CC[C@@H]1O [yohimbine, yohimbine hydrochloride]

Efficacy (Emax) G protein activation (α2A adrenoceptor [3]; Gαi1, α2A): 100 ± 5 percentage of NE values | Efficacy (Emax) G protein activation (α2A adrenoceptor [3]; Gαi2, α2A): 100 ± 10 percentage of NE values | Efficacy (Emax) G protein activation (α2A adrenoceptor [3]; Gαi3, α2A): 100 ± 10 percentage of NE values | Efficacy (Emax) G protein activation (α2A adrenoceptor [3]; Gαo1, α2A): 100 ± 7 percentage of NE values | Efficacy (Emax) G protein activation (α2A adrenoceptor [3]; Gαo2, α2A): 100 ± 9 percentage of NE values | Efficacy (Emax) G protein activation (α2C adrenoceptor [4]; Gαi1, α2C, ND: not detectable): 100 ± 2 percentage of NE values | Efficacy (Emax) G protein activation (α2C adrenoceptor [4]; Gαi2, α2C): 100 ± 7 percentage of NE values | Efficacy (Emax) G protein activation (α2C adrenoceptor [4]; Gαi3, α2C): 100 ± 9 percentage of NE values | Efficacy (Emax) G protein activation (α2C adrenoceptor [4]; Gαo1, α2C): 100 ± 10 percentage of NE values | Efficacy (Emax) G protein activation (α2C adrenoceptor [4]; Gαo2, α2C): 100 ± 8 percentage of NE values | EC50 (α2C adrenoceptor [4]; Potency (EC50) G protein activation, Gαi3, α2C): 0.4 ± 0.2 nM | increase of ERK1/2 phosphorylation levels (α2A adrenoceptor [6]; 300 nM): 3 fold over basal | Gs activation (inverted U-shaped curve, high ligand concentrations) (α2A adrenoceptor [7]; at 10 and 100 μM): promoted Gs activation | Gs activation (inverted U-shaped curve, high ligand concentrations) (α2C adrenoceptor [8]; at 10 and 100 μM): promoted Gs activation | EC50 (α2C adrenoceptor [9]): 7 ± 4 nM
Compound: NC[C@H](O)c1ccc(O)c(O)c1 [NE, L-(-)-norepinephrine (+)-bitartrate salt monohydrate]
